Measurements taken from PubChem BioAssay AID330 (DTP/NCI, 2004).
Where “and” joins values, the source holds several entries; their conditions need not be identical. Equal entries are not always repeated. Toxic doses and inconclusive results are not listed.

System: P388 leukemia ip, CD2F1 mice, survival T/C
Experiment: NCI In Vivo Anticancer Drug Screen. Data for tumor model P388 Leukemia (intraperitoneal) in CD2F1 (CDF1) mice
Conditions: endpoint: median survival time, higher = longer survival
Outline: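 Mice carrying the transplanted tumor received test compound or vehicle. Survival was recorded in each group, and the value is the treated-group measurement divided by that of the vehicle-treated control group.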

[1] = dose: 50.0 mg/kg/injection, schedule: Q01DX009 (ip), vehicle: Klucel (hydroxypropylcellulose) (HPC)
[2] = dose: 100.0 mg/kg/injection, schedule: Q01DX009 (ip), vehicle: Klucel (hydroxypropylcellulose) (HPC)
[3] = dose: 200.0 mg/kg/injection, schedule: Q01DX009 (ip), vehicle: Klucel (hydroxypropylcellulose) (HPC)
[4] = dose: 60.0 mg/kg/injection, schedule: Q01DX005 (ip), vehicle: saline with Tween-80
[5] = dose: 120.0 mg/kg/injection, schedule: Q01DX005 (ip), vehicle: saline with Tween-80
[6] = dose: 240.0 mg/kg/injection, schedule: Q01DX005 (ip), vehicle: saline with Tween-80
[7] = dose: 50.0 mg/kg/injection, schedule: Q01DX009 (ip), vehicle: saline
[8] = dose: 100.0 mg/kg/injection, schedule: Q01DX009 (ip), vehicle: saline
[9] = dose: 25.0 mg/kg/injection, schedule: Q01DX009 (ip), vehicle: distilled water + Tween-80
[10] = dose: 50.0 mg/kg/injection, schedule: Q01DX009 (ip), vehicle: distilled water + Tween-80
[11] = dose: 100.0 mg/kg/injection, schedule: Q01DX009 (ip), vehicle: distilled water + Tween-80
[12] = dose: 200.0 mg/kg/injection, schedule: Q01DX009 (ip), vehicle: distilled water + Tween-80
[13] = dose: 50.0 mg/kg/injection, schedule: Q01DX005 (ip), vehicle: saline with Tween-80
[14] = dose: 100.0 mg/kg/injection, schedule: Q01DX005 (ip), vehicle: saline with Tween-80
[15] = dose: 200.0 mg/kg/injection, schedule: Q01DX005 (ip), vehicle: saline with Tween-80
[16] = dose: 50.0 mg/kg/injection, schedule: Q01DX005 (ip), vehicle: Klucel (hydroxypropylcellulose) (HPC)
[17] = dose: 100.0 mg/kg/injection, schedule: Q01DX005 (ip), vehicle: Klucel (hydroxypropylcellulose) (HPC)
[18] = dose: 200.0 mg/kg/injection, schedule: Q01DX005 (ip), vehicle: Klucel (hydroxypropylcellulose) (HPC)
[19] = dose: 100.0 mg/kg/injection, schedule: Q01DX009 (ip), vehicle: saline with Tween-80
[20] = dose: 200.0 mg/kg/injection, schedule: Q01DX009 (ip), vehicle: saline with Tween-80
[21] = dose: 400.0 mg/kg/injection, schedule: Q01DX009 (ip), vehicle: saline with Tween-80

Cc1ccc(N2C(=O)CC3(CCCCC3)C2=O)cc1C
T/C [1]: 106 % of control
T/C [2]: 105 % of control
T/C [3]: 97 % of control

Cc1cc(O)c2c(c1O)C(=O)C13C(=C2O)C(=O)C2C(O)C1C1C(O)C3C(=O)C3=C(O)c4c(O)cc(C)c(O)c4C(=O)C321 (configuration not stated)
T/C (dose: 0.75 mg/kg/injection, schedule: Q01DX005 (ip), vehicle: saline with Tween-80): 100 % of control and 106 % of control
T/C (dose: 0.78 mg/kg/injection, schedule: Q01DX009 (ip), vehicle: saline with Tween-80): 116 % of control
T/C (dose: 1.5 mg/kg/injection, schedule: Q01DX005 (ip), vehicle: saline with Tween-80): 111 % of control and 115 % of control
T/C (dose: 3.0 mg/kg/injection, schedule: Q01DX005 (ip), vehicle: saline with Tween-80): 115 % of control

S=C(SCc1c(Cl)cccc1Cl)N1CCSCC1
T/C [4]: 102 % of control
T/C [5]: 93 % of control
T/C [6]: 96 % of control

CC1=C(C2CO2)C(=O)C(C)=C(C2CO2)C1=O (configuration not stated)
T/C (dose: 1.56 mg/kg/injection, schedule: Q04DX002 (ip), vehicle: Klucel (hydroxypropylcellulose) (HPC)): 95 % of control
T/C (dose: 3.12 mg/kg/injection, schedule: Q04DX002 (ip), vehicle: Klucel (hydroxypropylcellulose) (HPC)): 93 % of control
T/C (dose: 6.25 mg/kg/injection, schedule: Q04DX002 (ip), vehicle: Klucel (hydroxypropylcellulose) (HPC)): 88 % of control
T/C (dose: 12.5 mg/kg/injection, schedule: Q04DX002 (ip), vehicle: Klucel (hydroxypropylcellulose) (HPC)): 89 % of control

CC(=O)/C(=C\c1ccccc1F)C(=O)CCN(C)C
T/C (dose: 60.0 mg/kg/injection, schedule: Q01DX005 (ip), vehicle: saline): 109 % of control
T/C (dose: 120.0 mg/kg/injection, schedule: Q01DX005 (ip), vehicle: saline): 118 % of control

O=Cc1c(-c2ccc(Cl)cc2)nc2n1CCS2
T/C (dose: 100.0 mg/kg/injection, schedule: Q04DX002 (ip), vehicle: Klucel (hydroxypropylcellulose) (HPC)): 101 % of control
T/C (dose: 400.0 mg/kg/injection, schedule: Q04DX002 (ip), vehicle: Klucel (hydroxypropylcellulose) (HPC)): 104 % of control

NS(=O)(=O)c1cccnc1Nc1ccc(Cl)c(Cl)c1
T/C [7]: 86 % of control
T/C [8]: 93 % of control
T/C (dose: 200.0 mg/kg/injection, schedule: Q01DX009 (ip), vehicle: saline): 101 % of control

CCCCc1c(OC(=O)N(C)C)c(C#N)c2n(C)c3ccccc3n2c1=O
T/C [4]: 101 % of control and 86 % of control
T/C [5]: 95 % of control
T/C [6]: 93 % of control and 96 % of control

COC(=O)C1=C(C(=O)OC)CCC1
T/C [9]: 97 % of control
T/C [10]: 91 % of control
T/C [11]: 100 % of control
T/C [12]: 105 % of control
T/C (dose: 400.0 mg/kg/injection, schedule: Q01DX009 (ip), vehicle: distilled water + Tween-80): 100 % of control

CCC/C=C\C=C\C(=O)OC1C2C=C3CC(C(C)O)OC(=O)CC(O)CC4CC(OC(C)=O)C(C)(C)C(O)(CC5C/C(=C\C(=O)OC)CC(/C=C/C(C)(C)C16OC(=O)C(O)C32O6)O5)O4 (configuration not stated)
T/C (dose: 0.03 mg/kg/injection, schedule: Q01DX009 (ip), vehicle: saline + alcohol): 163 % of control
T/C (dose: 30.0 micrograms/kg/injection, schedule: Q01DX009 (ip), vehicle: saline + alcohol): 153 % of control

O=C(c1ccc(Cl)cc1)c1cc2ccccc2oc1=O
T/C [4]: 92 % of control
T/C [5]: 93 % of control
T/C [6]: 93 % of control

CCOC(=O)N1c2ccccc2C(c2ccccc2)=NC1(C#N)CC (configuration not stated)
T/C [13]: 96 % of control
T/C [14]: 96 % of control
T/C [15]: 97 % of control

CC(=O)N1CCc2cc([N+](=O)[O-])cc(Br)c21
T/C (dose: 12.5 mg/kg/injection, schedule: Q01DX009 (ip), vehicle: distilled water + Tween-80): 107 % of control
T/C [9]: 98 % of control
T/C [10]: 91 % of control
T/C [11]: 98 % of control
T/C [12]: 91 % of control

Clc1ccc(-c2c(-c3ccccc3)c3n(c2Sc2ccccc2)CCC3)cc1
T/C (dose: 60.0 mg/kg/injection, schedule: Q01DX005 (ip), vehicle: Klucel (hydroxypropylcellulose) (HPC)): 92 % of control
T/C (dose: 120.0 mg/kg/injection, schedule: Q01DX005 (ip), vehicle: Klucel (hydroxypropylcellulose) (HPC)): 89 % of control
T/C (dose: 240.0 mg/kg/injection, schedule: Q01DX005 (ip), vehicle: Klucel (hydroxypropylcellulose) (HPC)): 86 % of control

CC1CN(C(=O)/C=C/C(=O)OC2CCCCC2)CCN1C(=O)/C=C/C(=O)OC1CCCCC1 (configuration not stated)
T/C [16]: 100 % of control
T/C [17]: 100 % of control
T/C [18]: 98 % of control

CC1(C)[C@H](O)CC[C@]2(C)[C@@H]1CC[C@]13C=C[C@](C)(C1)[C@H](O)C[C@H]32
T/C (dose: 1.88 mg/kg/injection, schedule: Q01DX005 (ip), vehicle: Klucel (hydroxypropylcellulose) (HPC)): 96 % of control
T/C (dose: 3.75 mg/kg/injection, schedule: Q01DX005 (ip), vehicle: Klucel (hydroxypropylcellulose) (HPC)): 94 % of control
T/C (dose: 7.5 mg/kg/injection, schedule: Q01DX005 (ip), vehicle: Klucel (hydroxypropylcellulose) (HPC)): 91 % of control
T/C (dose: 15.0 mg/kg/injection, schedule: Q01DX005 (ip), vehicle: Klucel (hydroxypropylcellulose) (HPC)): 95 % of control

CCOc1cc2c(OCc3ccccc3)cc3c4cc(OC)c(OC)cc4c[n+](C)c3c2cc1OC
T/C (dose: 3.12 mg/kg/injection, schedule: Q01DX005 (ip), vehicle: saline with Tween-80): 118 % of control
T/C (dose: 6.25 mg/kg/injection, schedule: Q01DX005 (ip), vehicle: saline with Tween-80): 112 % of control
T/C (dose: 12.5 mg/kg/injection, schedule: Q01DX005 (ip), vehicle: saline with Tween-80): 91 % of control

OC(C(Br)CBr)C(O)C(Br)CBr (configuration not stated)
T/C [1]: 105 % of control
T/C [2]: 110 % of control
T/C [3]: 112 % of control

NC(N)=NCCCCCC(=O)O
T/C [7]: 100 % of control
T/C [8]: 109 % of control

Cc1cc(C)c2ccc(C)c(N)c2n1
T/C [13]: 99 % of control
T/C [14]: 92 % of control
T/C [15]: 99 % of control

[NH-]C(CCC(N)=O)C(=O)O.[NH-]C(CCC(N)=O)C(=O)O.[Ni+2] (configuration not stated)
T/C (dose: 6.25 mg/kg/injection, schedule: Q01DX005 (ip), vehicle: saline): 93 % of control
T/C (dose: 12.5 mg/kg/injection, schedule: Q01DX005 (ip), vehicle: saline): 96 % of control

NCCN1CCc2ccccc2C1
T/C (dose: 6.25 mg/kg/injection, schedule: Q04DX003 (ip), vehicle: saline): 95 % of control
T/C (dose: 12.5 mg/kg/injection, schedule: Q04DX003 (ip), vehicle: saline): 100 % of control
T/C (dose: 25.0 mg/kg/injection, schedule: Q04DX003 (ip), vehicle: saline): 100 % of control

Nc1ccc(O)c(=O)cc1
T/C [16]: 96 % of control
T/C [17]: 95 % of control
T/C [18]: 92 % of control

Cc1ccc(NS(=O)(=O)c2ccc(Cl)cc2)cc1Cl
T/C [19]: 104 % of control
T/C [20]: 98 % of control
T/C [21]: 100 % of control

O=C(C=C(C(F)(F)F)C(F)(F)F)c1cccc([N+](=O)[O-])c1
T/C (dose: 6.25 mg/kg/injection, schedule: Q04DX003 (ip), vehicle: saline with Tween-80): 104 % of control
T/C (dose: 12.5 mg/kg/injection, schedule: Q04DX003 (ip), vehicle: saline with Tween-80): 104 % of control
T/C (dose: 25.0 mg/kg/injection, schedule: Q04DX003 (ip), vehicle: saline with Tween-80): 100 % of control

Cc1ccc2c(O)c3c(cc2c1O)C(=O)c1ccccc1C3=O
T/C [13]: 100 % of control
T/C [14]: 107 % of control
T/C [15]: 109 % of control

O=C1c2cccc([N+](=O)[O-])c2C(=O)C1c1ccccn1 (configuration not stated)
T/C (dose: 50.0 mg/kg/injection, schedule: Q01DX009 (ip), vehicle: saline with Tween-80): 99 % of control
T/C [19]: 87 % of control
T/C [20]: 96 % of control
T/C [21]: 97 % of control

O=c1[nH]cnc(O)c1C1C=CC=CC=C1
T/C [16]: 105 % of control
T/C [17]: 114 % of control

Cc1nc(-c2nc(C(=O)NCCC[S+](C)C)cs2)cs1
T/C (dose: 50.0 mg/kg/injection, schedule: Q01DX005 (ip), vehicle: saline): 104 % of control
